Data as given in patent US20120214846A1, “HEXAHYDROCYCLOPENTYL[F]INDAZOLE PYRIDYL ETHANOLS AND DERIVATIVES THEREOF AS SELECTIVE GLUCOCORTICOID RECEPTOR MODULATORS” (MERCK SHARP & DOHME CORP, priority 2009, published 2012).
Read-outs that look alike come from different tables or passages of the source.

Target: T1, GR (Homo sapiens, UniProt P04150)
T1 sequence (P04150 1-777): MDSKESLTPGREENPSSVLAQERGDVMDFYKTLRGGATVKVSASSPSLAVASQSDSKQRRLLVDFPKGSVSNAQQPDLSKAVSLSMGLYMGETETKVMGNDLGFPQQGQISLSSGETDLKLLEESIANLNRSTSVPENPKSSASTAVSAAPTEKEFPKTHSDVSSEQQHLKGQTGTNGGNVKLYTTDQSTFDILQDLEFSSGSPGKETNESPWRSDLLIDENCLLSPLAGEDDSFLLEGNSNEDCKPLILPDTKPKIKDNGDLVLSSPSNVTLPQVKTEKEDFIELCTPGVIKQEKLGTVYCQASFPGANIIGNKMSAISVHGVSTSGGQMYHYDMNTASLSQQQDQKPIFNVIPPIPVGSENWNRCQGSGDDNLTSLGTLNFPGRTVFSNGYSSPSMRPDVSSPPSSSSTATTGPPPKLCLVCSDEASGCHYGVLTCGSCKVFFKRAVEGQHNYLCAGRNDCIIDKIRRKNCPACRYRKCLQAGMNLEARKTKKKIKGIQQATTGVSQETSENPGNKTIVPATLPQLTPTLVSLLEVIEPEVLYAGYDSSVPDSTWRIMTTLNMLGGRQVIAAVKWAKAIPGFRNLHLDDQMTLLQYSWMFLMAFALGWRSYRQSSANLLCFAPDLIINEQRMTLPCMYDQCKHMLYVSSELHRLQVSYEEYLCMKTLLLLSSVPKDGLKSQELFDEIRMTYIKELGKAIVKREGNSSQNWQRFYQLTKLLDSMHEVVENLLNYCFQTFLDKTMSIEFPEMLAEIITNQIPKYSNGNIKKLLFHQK
Assay: Trans-Activation Modulation of Glucocorticoid Receptor Assay (GRAMMER), MMTV-LUC reporter, A549 cells
Type: cell-based
Parameters: endogenous in cells
Text: Trans-Activation Modulation of Glucocorticoid Receptor Assay
This assay assesses the ability of test compounds to control transcription from the MMTV-LUC reporter gene in lung adenocarcinoma A549 cells or HeLa cells, a human […] cell line that naturally expresses the human GR. The assay measures induction of a modified MMTV LTR/promoter linked to the LUC reporter gene.
The routine transient assay consists of plating 7,000-25,000 cells/well of a white, clear-bottom 96-well plate. Alternatively, 384-well plates can be used at a cell concentration of 10,000/well. The media that the cells are plated in is “exponential growth medium” which consists of phenol red-free RPMI1640 containing 10% FBS, 4 mM L-glutamine, 20 mM HEPES, 10 ug/mL human insulin, and 20 ug/mL gentamicin. Incubator conditions are 37° C. and 5% CO2. The transfection is done in batch mode. The cells are trypsinized and counted to the right cell number in the proper amount of fresh media. It is then gently mixed with the FuGene6/DNA mix and plated onto the 96 or 384-well plate, all the wells receive 100 uL or 40 uL, respectively, of medium+lipid/DNA complex then incubated 37° C. overnight. The transfection cocktail consists of serum-free OptiMEM, FuGene6 reagent and DNA. The manufacturer's (Roche Biochemical) protocol for cocktail setup is as follows: The lipid to DNA ratio is approximately 2.5:1 and the incubation time is 20 min at room temperature. Sixteen to 24 hours after transfection, the cells are treated with dexamethasone to a final concentration of 10 nM as well as the compound of interest, such that final DMSO (vehicle) concentration is equal to or less than 1%. Each plate also contains samples that are treated with 10 nM dexamethasone alone, which is used as the 100% activity control. The cells are exposed to the compounds for 24 hours. After 24 hours, the cells are lysed by a Promega cell culture lysis buffer for approximately 30 min and then the luciferase activity in the extracts is assayed in the 96-well format luminometer. In 384-well format, Steady-Glo (Promega) or Steady-Lite (PerkinElmer) can be used by adding an equal volume of reagent to the media present in each well. […] Antagonist activity is calculated by determining the decrease in dexamethasone-induced activity in response to compound treatment relative to samples that were treated with dexamethasone alone. […] This transactivation assay can be performed in an agonist and antagonist mode to identify these different activities.
The action of compounds is also tested in an antagonist mode (Anti-GRAMMER) in which the cells are treated with medium containing an agonist such as 10 nM DEX and the ability to agents to inhibit the activation by an agonist is measured.

[1] = A549, Table 4, literature compounds, read-out: GRAMMER EMAX
[2] = Table 4, literature compounds, read-out: GRAMMER IP
[3] = A549 cells, inflection point, read-out: Transactivation A549 Cells GRAMMER IP
[4] = A549 cells, relative to 300 nM dexamethasone
[5] = A549, A549 cells, relative to 300 nM dexamethasone, read-out: Transactivation A549 Cells GRAMMER Emax

SMILES | EC50 [3] [nM] | Transactivation A549 Cells GRAMMER Emax [4] [%] | Emax [5] [%] | also measured
C[C@]12Cc3cnn(-c4ccc(F)cc4)c3C=C1CCC[C@@H]2[C@@H](O)c1ccccc1 [Ex. 35 WO 03/86294 A2, reference compound] |  |  |  | Emax [1]: 40.2%; EC50 [2]: 195 nM
C[C@]12Cc3cnn(-c4ccc(F)cc4)c3C=C1CC[C@@]2(O)CC(O)c1cc(C(F)(F)F)ccn1 (single isomer, unassigned) [Example 5b] | 158 | 18.1 |  | 
C[C@]12Cc3cnn(-c4ccc(F)cc4)c3C=C1CC[C@@]2(O)CC(O)c1cc(Br)ccn1 (single isomer, unassigned) [Example 10a] | 17.4 | 8.2 |  | 
C[C@]12Cc3cnn(-c4ccc(F)cc4)c3C=C1CC[C@@]2(O)CC(O)c1cc(C(F)(F)F)ccn1 (single isomer, unassigned) [Example 5a] | 52.1 |  | 15.1 | 
C[C@]12Cc3cnn(-c4ccc(F)cc4)c3C=C1CCC[C@@H]2[C@@H](O)Cc1ccccc1 [Ex. 22 WO 03/086294 A2, reference compound] |  |  |  | Emax [1]: 61%; EC50 [2]: 122 nM
C[C@]12Cc3cnn(-c4ccc(F)cc4)c3C=C1CC[C@@]2(O)CC(O)c1cc(Cl)ccn1 (single isomer, unassigned) [Example 8b] | 26.7 | 25.2 |  | 
C[C@]12Cc3cnn(-c4ccc(F)cc4)c3C=C1CC[C@@]2(O)CC(O)c1cc(Br)ccn1 (single isomer, unassigned) [Example 10b] | 80 | 19.8 |  | 
CO[C@@]1(CCc2ccccc2Cl)CCC2=Cc3c(cnn3-c3ccc(F)cc3)C[C@@]21C [Ex. 103 WO 04/075840 A2, reference compound] |  |  |  | Emax [1]: 115%; EC50 [2]: 162 nM
COc1ccnc(C(O)C[C@]2(O)CCC3=Cc4c(cnn4-c4ccc(F)cc4)C[C@@]32C)c1 (stereo partly drawn) [Example 3, (4αS,5R)-1-(4-fluorophenyl)-5-[2-hydroxy-2-(4-methoxypyridin-2-yl)ethyl]-4α-methyl-1,4,4α,5,6,7-hexahydrocyclopenta[f]indazol-5-ol] | 132 |  | 21.6 | 
C[C@]12Cc3cnn(-c4ccc(F)cc4)c3C=C1CC[C@@]2(O)CC(O)c1ccc(F)cn1 (single isomer, unassigned) [Example 7a] | 320 |  | 18.6 | 
C[C@]12Cc3cnn(-c4ccc(F)cc4)c3C=C1CC[C@@]2(O)CC(O)c1ncccc1F (stereo partly drawn) [Example 4, (4αS,5R)-1-(4-fluorophenyl)-5-[2-(3-fluoropyridin-2-yl)-2-hydroxyethyl]-4α-methyl-1,4,4α,5,6,7-hexahydrocyclopenta[f]indazol-5-ol] | 698 |  | 17.5 | 
C[C@]12Cc3cnn(-c4ccc(F)cc4)c3C=C1CC[C@@]2(O)CC(O)c1ccc(F)cn1 (single isomer, unassigned) [Example 7b] | 85.5 | 16.6 |  | 
C[C@]12Cc3cnn(-c4ccc(F)cc4)c3C=C1CC[C@@]2(O)CC(O)c1ccccn1 (single isomer, unassigned) [Example 2a] | 346 |  | 23.1 | 
C[C@]12Cc3cnn(-c4ccc(F)cc4)c3C=C1CC[C@@]2(O)CC(O)c1cc(Cl)ccn1 (single isomer, unassigned) [Example 8a] | 129 |  | 21.4 | 
C[C@]12Cc3cnn(-c4ccc(F)cc4)c3C=C1CC[C@@]2(O)C#Cc1ccccc1 [Ex. 1 WO 04/075840 A2, reference compound] |  |  |  | Emax [1]: 6.19%; EC50 [2]: 385 nM
C[C@]12Cc3cnn(-c4ccc(F)cc4)c3C=C1CC[C@@]2(O)CC(O)c1cc(C#N)ccn1 (stereo partly drawn) [Example 9, 2-{2-[(4αS,5R)-1-(4-fluorophenyl)-5-hydroxy-4α-methyl-1,4,4α,5,6,7-hexahydrocyclopenta[f]indazol-5-yl]-1-hydroxyethyl}pyridine-4-carbonitrile] | 160 |  | 27.4 | 
Cc1ccnc(C(O)C[C@]2(O)CCC3=Cc4c(cnn4-c4ccc(F)cc4)C[C@@]32C)c1 (stereo partly drawn) [Example 11, (4αS,5R)-1-(4-fluorophenyl)-5-[2-hydroxy-2-(4-methylpyridin-2-yl)ethyl]-4α-methyl-1,4,4α,5,6,7-hexahydrocyclopenta[f]indazol-5-ol] | 162 |  | 27.7 | 
C[C@]12Cc3cnn(-c4ccc(F)cc4)c3C=C1CC[C@@]2(O)CC(O)c1ccc(C(F)(F)F)cn1 (stereo partly drawn) [Example 6, (4αS,5R)-1-(4-fluorophenyl)-5-{2-hydroxy-2-[5-(trifluoromethyl)pyridin-2-yl]ethyl}-4α-methyl-1,4,4α,5,6,7-hexahydrocyclopenta[f]indazol-5-ol] | 328 |  | 18.6 | 
C[C@]12Cc3cnn(-c4ccc(F)cc4)c3C=C1CCC[C@@H]2[C@@H](O)CCc1ccccc1 [Ex. 30 WO 03/086294 A2, reference compound] |  |  |  | Emax (A549, read-out: GRAMMER EMAX): 48.8%; EC50 (GRAMMER IP, Table 4, literature compounds): 166 nM
C[C@]12Cc3cnn(-c4ccc(F)cc4)c3C=C1CC[C@@]2(O)CC(O)c1ccccn1 (single isomer, unassigned) [Example 2b] | 255 | 26.8 |  | 
Cc1cccnc1C(O)C[C@]1(O)CCC2=Cc3c(cnn3-c3ccc(F)cc3)C[C@@]21C (single isomer, unassigned) [Example 1b] | 236 | 27.4 |  | 
Cc1cccnc1C(O)C[C@]1(O)CCC2=Cc3c(cnn3-c3ccc(F)cc3)C[C@@]21C (single isomer, unassigned) [Example 1a] | 116 | 64.8 |  | 
